Key:
Format in all cases: functional
[1] = Inhibition of LPS-induced TNF-alpha production in wild-type C57BL/6 mouse BMDC pretreated with compound for 1 hr before LPS treatment measured 16 hrs by ELISA
[2] = Inhibition of LPS-induced IL-12 p40 production in wild-type C57BL/6 mouse BMDC pretreated with compound for 1 hr before LPS treatment measured 16 hrs by ELISA
[3] = Inhibition of LPS-induced IL-6 production in wild-type C57BL/6 mouse BMDC pretreated with compound for 1 hr before LPS treatment measured 16 hrs by ELISA

IC50 [1]	IC50 [2]	IC50 [3]	SMILES
28.7 µM	> 50 µM	> 50 µM	COc1cc([C@@H](O)[C@H](O)CO)cc(OC)c1O (relative stereo)
> 50 µM	> 50 µM	> 50 µM	Oc1cc(O)c2c(c1)O[C@H](c1ccc(O)c(O)c1)[C@@H](O)C2 [CIANIDANOL]
> 50 µM	> 50 µM	> 50 µM	COc1cc([C@H]2OC[C@H]3[C@@H]2CO[C@@H]3c2cc(OC)c(O[C@@H]3O[C@H](CO)[C@@H](O)[C@H](O)[C@H]3O)c(OC)c2)cc(OC)c1O
> 50 µM	> 50 µM	> 50 µM	C[C@@H]1O[C@@H](Oc2c(-c3ccc(O)cc3)oc3cc(O)cc(O)c3c2=O)[C@H](O)[C@H](O)[C@H]1O [AFZELIN]
> 50 µM	> 50 µM	> 50 µM	O=C(O)c1ccc(O)c(O)c1 [PROTOCATECHUIC ACID]
> 50 µM	> 50 µM	> 50 µM	COc1cc([C@@H](O)[C@@H](O)CO)cc(OC)c1O (relative stereo)
> 50 µM	> 50 µM	> 50 µM	COc1cc(-c2oc3cc(O)cc(O)c3c(=O)c2O[C@@H]2O[C@H](CO)[C@@H](O)[C@H](O)[C@H]2O)ccc1O
> 50 µM	> 50 µM	> 50 µM	Oc1cc(O)c2c(c1)O[C@H](c1ccc(O)c(O)c1)[C@H](O)C2 [(-)-EPICATECHIN]
> 50 µM	> 50 µM	> 50 µM	CC1=CC(=O)CC(C)(C)[C@H]1CC[C@H](C)O[C@@H]1O[C@H](CO)[C@@H](O)[C@H](O)[C@H]1O
> 50 µM	> 50 µM	> 50 µM	O=C(O)/C=C/c1ccc(O)c(O)c1 [CAFFEIC ACID]
> 50 µM	> 50 µM	> 50 µM	O=c1c(O[C@@H]2O[C@H](CO)[C@@H](O)[C@H](O)[C@H]2O)c(-c2ccc(O)c(O)c2)oc2cc(O)cc(O)c12 [ISOQUERCETIN]
> 50 µM	> 50 µM	> 50 µM	COc1cc(-c2oc3cc(O)cc(O)c3c(=O)c2O[C@@H]2O[C@H](CO[C@@H]3O[C@@H](C)[C@H](O)[C@@H](O)[C@H]3O)[C@@H](O)[C@H](O)[C@H]2O)ccc1O [NARCISSIN]
49.9 µM	> 50 µM	0.07 µM	CC1=CC(=O)CC(C)(C)[C@@]1(O)/C=C/[C@H](C)O[C@@H]1O[C@H](CO)[C@@H](O)[C@H](O)[C@H]1O [6S,9S-ROSEOSIDE]
> 50 µM	> 50 µM	> 50 µM	C[C@@H]1O[C@@H](OC[C@H]2O[C@@H](Oc3c(-c4ccc(O)c(O)c4)oc4cc(O)cc(O)c4c3=O)[C@H](O)[C@@H](O)[C@@H]2O)[C@H](O)[C@H](O)[C@H]1O [RUTIN]
> 50 µM	> 50 µM	> 50 µM	CC1=C(CC[C@H](C)O)C(C)(C)C[C@H](O[C@@H]2O[C@H](CO)[C@@H](O)[C@H](O)[C@H]2O)C1
> 50 µM	> 50 µM	> 50 µM	CC(C)(O)[C@H]1CC[C@@]2(C)[C@@H]3C[C@@H](O[C@@H]4O[C@H](CO)[C@@H](O)[C@H](O)[C@H]4O)[C@]2(C)[C@H](O)C31
> 50 µM	> 50 µM	> 50 µM	O=C(/C=C/c1ccc(O)c(O)c1)O[C@@H]1C[C@](O)(C(=O)O)C[C@@H](O)[C@H]1O [CHLOROGENIC ACID]
